In PubChem BioAssay AID330 (DTP/NCI, 2004):
Where “and” joins values, the source holds several entries; their conditions need not be identical. Equal entries are not always repeated. Inconclusive results and toxic doses are left out. The calls were made as follows: active = survival T/C of 150% or more; inactive = T/C below 125% in these data.

Tested on: P388 leukemia ip, CD2F1 mice, survival T/C
Test: NCI In Vivo Anticancer Drug Screen. Data for tumor model P388 Leukemia (intraperitoneal) in CD2F1 (CDF1) mice
Conditions: endpoint: median survival time, higher = longer survival
Outline: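 Mice carrying the transplanted tumor received test compound or vehicle. Survival was recorded in each group, and the value is the treated-group measurement divided by that of the vehicle-treated control group.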

[1] = dose: 50.0 mg/kg/injection, schedule: Q01DX005 (ip), vehicle: Klucel (hydroxypropylcellulose) (HPC)
[2] = dose: 100.0 mg/kg/injection, schedule: Q01DX005 (ip), vehicle: Klucel (hydroxypropylcellulose) (HPC)
[3] = dose: 200.0 mg/kg/injection, schedule: Q01DX005 (ip), vehicle: Klucel (hydroxypropylcellulose) (HPC)
[4] = dose: 60.0 mg/kg/injection, schedule: Q01DX005 (ip), vehicle: saline with Tween-80
[5] = dose: 120.0 mg/kg/injection, schedule: Q01DX005 (ip), vehicle: saline with Tween-80
[6] = dose: 240.0 mg/kg/injection, schedule: Q01DX005 (ip), vehicle: saline with Tween-80
[7] = dose: 60.0 mg/kg/injection, schedule: Q01DX005 (ip), vehicle: saline
[8] = dose: 120.0 mg/kg/injection, schedule: Q01DX005 (ip), vehicle: saline
[9] = dose: 240.0 mg/kg/injection, schedule: Q01DX005 (ip), vehicle: saline
[10] = dose: 50.0 mg/kg/injection, schedule: Q01DX005 (ip), vehicle: saline
[11] = dose: 100.0 mg/kg/injection, schedule: Q01DX005 (ip), vehicle: saline
[12] = dose: 25.0 mg/kg/injection, schedule: Q01DX001 (ip), vehicle: saline
[13] = dose: 50.0 mg/kg/injection, schedule: Q01DX001 (ip), vehicle: saline
[14] = dose: 100.0 mg/kg/injection, schedule: Q01DX001 (ip), vehicle: saline
[15] = dose: 25.0 mg/kg/injection, schedule: Q01DX009 (ip), vehicle: saline with Tween-80
[16] = dose: 50.0 mg/kg/injection, schedule: Q01DX009 (ip), vehicle: saline with Tween-80

Measured: T/C

COC1=CC(=O)C(C(c2ccc(OC)cc2)N2CCOCC2)=CC1=O (configuration not stated)
inactive: dose: 12.5 mg/kg/injection, schedule: Q01DX005 (ip), vehicle: saline with Tween-80 109 % of control | dose: 25.0 mg/kg/injection, schedule: Q01DX005 (ip), vehicle: saline with Tween-80 109 % of control | dose: 50.0 mg/kg/injection, schedule: Q01DX005 (ip), vehicle: saline with Tween-80 101 % of control and 109 % of control

c1ccc(-c2nnc(-c3ccccc3)nn2)cc1
inactive: dose: 50.0 mg/kg/injection, schedule: Q04DX003 (ip), vehicle: saline with Tween-80 100 % of control | dose: 100.0 mg/kg/injection, schedule: Q04DX003 (ip), vehicle: saline with Tween-80 100 % of control | dose: 200.0 mg/kg/injection, schedule: Q04DX003 (ip), vehicle: saline with Tween-80 97 % of control | dose: 400.0 mg/kg/injection, schedule: Q04DX003 (ip), vehicle: saline with Tween-80 93 % of control

O=C(O)CC(O)(CC(=O)O)C(=O)O
inactive: dose: 0.12 % in 0.5 ml injection vol, schedule: Q01DX009 (ip), vehicle: water 100 % of control | dose: 0.25 % in 0.5 ml injection vol, schedule: Q01DX009 (ip), vehicle: water 99 % of control and 94 % of control | dose: 0.5 % in 0.5 ml injection vol, schedule: Q01DX009 (ip), vehicle: water 88 % of control and 90 % of control and 94 % of control

CC1(C)OC(=O)C(=Cc2ccc[nH]2)C(=O)O1
inactive: [1] 98 % of control | [2] 105 % of control | [3] 107 % of control

NC(=O)CCN1CCCN(CCC(N)=O)CCN(CCC(N)=O)CCCN(CCC(N)=O)CC1
inactive: [4] 102 % of control | [5] 110 % of control | [6] 94 % of control

Nc1nc2nc3c(nc2c(=O)[nH]1)CCCC3
inactive: [4] 101 % of control | [5] 92 % of control | [6] 90 % of control

CCCCCCC1(/C=C/c2ccc(Cl)c(Cl)c2)OCCCO1
inactive: dose: 50.0 mg/kg/injection, schedule: Q01DX009 (ip), vehicle: saline + alcohol 98 % of control | dose: 100.0 mg/kg/injection, schedule: Q01DX009 (ip), vehicle: saline + alcohol 93 % of control | dose: 200.0 mg/kg/injection, schedule: Q01DX009 (ip), vehicle: saline + alcohol 98 % of control

CCCCCCCCCCCCCCCCN(CC)CC
inactive: dose: 2.5 mg/kg/injection, schedule: Q01DX009 (ip), vehicle: saline 105 % of control | dose: 5.0 mg/kg/injection, schedule: Q01DX009 (ip), vehicle: saline 108 % of control | dose: 10.0 mg/kg/injection, schedule: Q01DX009 (ip), vehicle: saline 103 % of control

Cc1ccc(NC(=S)NNC(=O)CN2C(=O)c3ccccc3C2=O)cc1
inactive: dose: 12.5 mg/kg/injection, schedule: Q01DX001 (ip), vehicle: Klucel (hydroxypropylcellulose) (HPC) 93 % of control | dose: 25.0 mg/kg/injection, schedule: Q01DX001 (ip), vehicle: Klucel (hydroxypropylcellulose) (HPC) 93 % of control | dose: 50.0 mg/kg/injection, schedule: Q01DX001 (ip), vehicle: Klucel (hydroxypropylcellulose) (HPC) 89 % of control and 90 % of control

COC(=O)n1nnc2ncccc21
inactive: [7] 101 % of control | [8] 100 % of control | [9] 92 % of control

CCC(=O)n1c(Cl)c(C=O)c2ccccc21
inactive: dose: 100.0 mg/kg/injection, schedule: Q01DX001 (ip), vehicle: Klucel (hydroxypropylcellulose) (HPC) 99 % of control | dose: 200.0 mg/kg/injection, schedule: Q01DX001 (ip), vehicle: Klucel (hydroxypropylcellulose) (HPC) 102 % of control | dose: 400.0 mg/kg/injection, schedule: Q01DX001 (ip), vehicle: Klucel (hydroxypropylcellulose) (HPC) 94 % of control

O=C1CNC(=O)N1CN1CCc2ccccc2C1
inactive: [1] 99 % of control | [2] 105 % of control | [3] 99 % of control

O=C(O)CCC12CCC(=O)N1Cc1ccccc1C2=O (configuration not stated)
inactive: [4] 107 % of control | [5] 110 % of control | [6] 109 % of control

O=P(O)(O)CCCNO
inactive: [7] 95 % of control | [8] 91 % of control | [9] 90 % of control

O=C1c2ccccc2C(=O)c2c(NCCO)ccc(NCCO)c21
inactive: dose: 25.0 mg/kg/injection, schedule: Q04DX002 (ip), vehicle: saline with Tween-80 96 % of control | dose: 50.0 mg/kg/injection, schedule: Q04DX002 (ip), vehicle: saline with Tween-80 91 % of control | dose: 100.0 mg/kg/injection, schedule: Q04DX002 (ip), vehicle: saline with Tween-80 95 % of control | dose: 200.0 mg/kg/injection, schedule: Q04DX002 (ip), vehicle: saline with Tween-80 90 % of control

CC1=C(C(=O)CC(=O)Nc2ccc(Cl)c(Cl)c2)Sc2ccccc2N1
inactive: [4] 96 % of control | [5] 92 % of control | [6] 99 % of control

CSC1=Nc2ccccc2SC(c2ccccc2)C1c1ccccc1 (configuration not stated)
inactive: [1] 99 % of control | [2] 95 % of control | [3] 96 % of control

CN=c1ccc2cc3ccc(NC)cc3oc-2c1
inactive: [10] 92 % of control | [11] 89 % of control

O=S(=O)(O)C1CCC(O)C2[N-]CCCC21.O=S(=O)(O)C1CCC(O)C2[N-]CCCC21.[Ni+2] (configuration not stated)
inactive: [12] 100 % of control | [13] 100 % of control | [14] 110 % of control

Cc1nc(N)[nH]c(=O)c1CCCN=Cc1ccccc1
inactive: dose: 60.0 mg/kg/injection, schedule: Q01DX005 (ip), vehicle: Klucel (hydroxypropylcellulose) (HPC) 108 % of control | dose: 120.0 mg/kg/injection, schedule: Q01DX005 (ip), vehicle: Klucel (hydroxypropylcellulose) (HPC) 105 % of control | dose: 240.0 mg/kg/injection, schedule: Q01DX005 (ip), vehicle: Klucel (hydroxypropylcellulose) (HPC) 96 % of control

CC(=O)OC/C=C(\C)CC(/C=C(C)/C=C/C1=C(C)CCCC1(C)C)S(=O)(=O)c1ccccc1 (configuration not stated)
inactive: dose: 12.5 mg/kg/injection, schedule: Q01DX009 (ip), vehicle: saline with Tween-80 100 % of control | [15] 106 % of control | [16] 90 % of control and 93 % of control | dose: 200.0 mg/kg/injection, schedule: Q01DX009 (ip), vehicle: saline with Tween-80 92 % of control

CN1CCN(Cc2ncc(C3CCCCC3)c(=O)[nH]2)CC1
inactive: [15] 100 % of control | [16] 102 % of control | dose: 100.0 mg/kg/injection, schedule: Q01DX009 (ip), vehicle: saline with Tween-80 97 % of control

Cc1nc(Nc2ccccc2Cl)c2ccsc2n1
inactive: [1] 100 % of control | [2] 93 % of control | [3] 87 % of control

Nc1nc(F)nc2c1nnn2C1OC(CO)C(O)C1O (configuration not stated)
inactive: dose: 12.5 mg/kg/injection, schedule: Q01DX001 (ip), vehicle: saline 112 % of control | [12] 109 % of control | [13] 109 % of control | [10] 121 % of control | [14] 104 % of control | [11] 114 % of control
